Results taken from patent publication US5280015A, “2-substituted adenosines and 2-substituted adenosine 5'-carboxamides” (priority 1990, dated 1994).
Where two headings read alike, the source gives them in different places.

What was measured:
[1] = system: human platelets; assay: Increase in cyclic AMP in human platelets; type: cell-based; conditions: for activation at 1 µM: Platelet, read-out: increase in the level of cyclic AMP
[2] = system: locomotor activity in NIH mice; assay: Locomotor depression by A2 adenosine agonists in mice (Digiscan activity monitor); type: in vivo, mouse; conditions: for ED50: Mus musculus, read-out: ED50, locomotor depression; for ED50 / locomotor depression (% decrease in horizontal activity from vehicle control): ip; for locomotor depression (% decrease in horizontal activity from vehicle control): mouse, in vivo; for reversal of APEC locomotor depression by antagonist: antagonist injected before APEC, 8-cyclopentyltheophylline 10 mg/kg
[3] = target: T1, A1-adenosine receptors (Rattus norvegicus, UniProt P25099); assay: Competitive binding assay at A1-adenosine receptors, rat cerebral cortex membranes ([3H]PIA or [3H]CHA); conditions: rat
T1 construct: rat cerebral cortex membranes; from tissue; host or cells: rat cerebral cortex membranes
T1 sequence (P25099 1-326): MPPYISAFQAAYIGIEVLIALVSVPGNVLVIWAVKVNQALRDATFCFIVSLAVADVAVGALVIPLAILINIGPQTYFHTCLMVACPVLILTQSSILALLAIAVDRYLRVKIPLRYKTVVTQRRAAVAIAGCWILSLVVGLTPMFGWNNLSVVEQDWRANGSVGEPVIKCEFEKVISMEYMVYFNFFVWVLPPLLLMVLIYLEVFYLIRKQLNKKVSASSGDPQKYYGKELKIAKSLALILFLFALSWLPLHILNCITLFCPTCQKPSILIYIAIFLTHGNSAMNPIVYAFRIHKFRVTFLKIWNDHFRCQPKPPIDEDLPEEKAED

[4] = target: T2, A2-adenosine receptors (Rattus norvegicus, UniProt P30543); assay: Inhibition of binding of [3H]CGS21680 to A2-adenosine receptors in rat striatal membranes
T2 construct: rat striatal membranes; from tissue; host or cells: rat striatal membranes
T2 sequence (P30543 whole entry): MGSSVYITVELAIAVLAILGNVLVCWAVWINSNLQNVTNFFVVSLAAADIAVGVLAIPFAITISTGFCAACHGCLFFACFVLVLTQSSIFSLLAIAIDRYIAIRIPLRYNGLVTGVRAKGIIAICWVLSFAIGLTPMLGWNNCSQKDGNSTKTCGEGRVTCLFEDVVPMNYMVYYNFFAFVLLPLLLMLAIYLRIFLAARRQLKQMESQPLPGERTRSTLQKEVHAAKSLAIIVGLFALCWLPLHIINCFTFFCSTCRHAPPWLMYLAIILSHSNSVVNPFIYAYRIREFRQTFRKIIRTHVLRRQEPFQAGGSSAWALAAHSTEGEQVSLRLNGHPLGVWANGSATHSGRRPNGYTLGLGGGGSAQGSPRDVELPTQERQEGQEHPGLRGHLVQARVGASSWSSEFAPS
Method: (§1) Stock solutions of representative compounds of the present invention in the millimolar concentration range in dimethylsulfoxide were prepared for the binding assays. […] Protein was determined using the BCA (based on the complex with cuprous ions and bicinchoninic acid) protein assay reagents purchased from Pierce Chemical Co., Rockford, Ill.
The membrane suspension was then centrifuged at 37,000×g for 20 min at 4° C. The pellet was resuspended in buffer containing 2 IU/ml adenosine deaminase, Type VI from calf intestinal mucosa (Sigma, St. Louis, Mo.) to 20 mg/ml original tissue weight and incubated at 37° C. for 30 min. The membrane homogenate was recentrifuged as before, and the pellet was stored frozen at -70° C. until use.
For competitive binding assays using [^3 H]CGS21680, a volume of 1 ml was used in each 13×100 mm glass tube. […] The mixture was incubated with shaking for 90 min at 24° C. The samples were filtered on a Brandel Cell Harvester (Brandel, Gaithersburg, Md.) with Whatman GF/B filters, and washed rapidly twice with 5 ml of ice cold 50 mM Tris, pH 7.4. Each filter disc was added to 4 ml of scintillation fluid, vortexed, and counted after 6 hours.

[5] = system: A2-adenosine receptors; assay: Competitive binding assay in bovine brain using 125I-PAPA-APEC (striatal membranes); conditions: ratio of Ki at A1-receptors (rat) versus Ki in the 125I-PAPA-APEC assay (bovine)
Method: (§2) The filters were washed with three×3 ml aliquots of pH 7.2 buffer containing 50 mM HEPES, 10 mM Mg^+2, and 0.05% CHAPS. The filters were placed in polypropylene tubes and counted in a Packard gamma counter.

[6] = target: A2 adenosine receptors (Bos taurus, UniProt E1BKU0); assay: as above; design: Bovine striatal membranes; from tissue; host or cells: bovine (calf) striatal membranes
Chain of A2 adenosine receptors (E1BKU0 1-401): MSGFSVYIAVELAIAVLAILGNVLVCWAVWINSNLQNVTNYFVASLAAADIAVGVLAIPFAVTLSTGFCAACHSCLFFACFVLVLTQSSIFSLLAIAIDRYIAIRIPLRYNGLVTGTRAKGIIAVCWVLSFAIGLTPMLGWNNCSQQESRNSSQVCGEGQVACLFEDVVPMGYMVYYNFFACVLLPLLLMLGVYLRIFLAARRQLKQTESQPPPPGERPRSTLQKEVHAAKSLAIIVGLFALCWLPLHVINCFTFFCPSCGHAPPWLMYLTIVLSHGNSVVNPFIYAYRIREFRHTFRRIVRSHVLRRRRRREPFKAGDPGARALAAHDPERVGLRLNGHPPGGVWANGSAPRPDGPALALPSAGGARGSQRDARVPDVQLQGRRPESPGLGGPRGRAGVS
Method: as §2

[7] = target: T2, A2-adenosine receptors; assay: Inhibition of binding of [3H]NECA to A2-adenosine receptors in rat striatal membranes
Method: as §1
N^6 -Cyclopentyladenosine was present at 50 nM to inhibit binding of the ligand at A1 -adenosine receptors.

[8] = [3H]PIA, read-out: Ki, inhibition of binding of [3H]PIA at A1-receptors
[9] = read-out: Ki, inhibition of binding of [3H]CGS21680 at A2-receptors
[10] = bovine brain A2; relative to compounds with Ki less than 10 nM
[11] = bovine striatum; 11, 12 and 14: apparent Ki; read-out: Ki, inhibition of binding of 125I-PAPA-APEC at A2-receptors
[12] = [3H]N6-cyclohexyladenosine (footnote c), read-out: Ki, inhibition of binding at A1-receptors using [3H]N6-cyclohexyladenosine

CCNC(=O)[C@H]1O[C@@H](n2cnc3c(N)ncnc32)[C@H](O)[C@@H]1O [NECA, 5'-N-ethylcarboxamidoadenosine, reference compound]
activation at 1 µM ([1]; Homo sapiens): 35% | ED50 [2]: 0.002 mg/kg

CCNC(=O)[C@H]1O[C@@H](n2cnc3c(N)nc(NCCc4ccc(CCC(=O)NCCNC(=O)Cc5ccc(N)cc5)cc4)nc32)[C@H](O)[C@@H]1O [Compound 6]
Ki [3, 8]: 1340 nM | activation at 1 µM ([1]; human platelets, 10^-6 M): 40% | increase in cyclic AMP ([1]; human platelets, 1 nM to 10 μM): dose dependent increase in cyclic AMP | Ki [4, 9]: 28 ± 7 nM | Ki (A1)/K1 (A2) [5]: 31 | potency in displacing 125I-PAPA-APEC binding [6, 10]: less potent | Ki [6, 11]: 43 ± 14 nM

NCCNC(=O)Cc1ccc(NC(=O)Cc2ccc(Nc3ncnc4c3ncn4[C@@H]3O[C@H](CO)[C@@H](O)[C@H]3O)cc2)cc1 [ADAC, reference compound]
Ki [7]: 210 nM | Ki [4]: 218 ± 28 nM

CCNC(=O)[C@H]1O[C@@H](n2cnc3c(N)nc(NCCc4ccc(CCC(=O)NCCNC(=O)Cc5cccs5)cc4)nc32)[C@H](O)[C@@H]1O [Compound 5]
Ki [3, 12]: 1400 ± 100 nM | Ki [4, 9]: 15 ± 1 nM | locomotor depression (% decrease in horizontal activity from vehicle control) [2]: 49±9% | Ki (A1)/K1 (A2) [5]: 66 | Ki [6, 11]: 21.3 ± 7.9 nM

Cn1c(=O)c2[nH]cnc2n(C)c1=O [theophylline]
total distance traveled restored, % of control ([2]; antagonist 10 mg/kg, at the ED50 dose of APEC, mice): 95±12 % of control | reversal of APEC locomotor depression by antagonist ([2]; mice): reversible by theophylline

Cn1c(=O)c2[nH]c(C3CCCC3)nc2n(C)c1=O [8-cyclopentyltheophylline]
reversal of APEC locomotor depression by antagonist ([2]; mice): not

CCNC(=O)[C@H]1O[C@@H](n2cnc3c(N)nc(NCCc4ccc(CCC(=O)NCCNC(=O)CCc5ccc(O)cc5)cc4)nc32)[C@H](O)[C@@H]1O [Compound 4]
Ki [3, 12]: 950 ± 100 nM | Ki [4, 9]: 13 ± 4 nM | locomotor depression (% decrease in horizontal activity from vehicle control) [2]: 44±7% | Ki (A1)/K1 (A2) [5]: 72 | Ki [6, 11]: 13.2 ± 1.5 nM

CCNC(=O)[C@H]1O[C@@H](n2cnc3c(N)nc(NCCc4ccc(CCC(=O)NCCNC(=O)c5cccc(N)c5)cc4)nc32)[C@H](O)[C@@H]1O [Compound 8]
Ki [3, 8]: 1340 ± 28 nM | Ki ([4]; rat striatum, 11, 12 and 14: apparent Ki, read-out: Ki, inhibition of binding of [3H]CGS21680 at A2-receptors): 16.5 ± 2.8 nM | Ki (A1)/K1 (A2) [5]: 31 | potency in displacing 125I-PAPA-APEC binding [6, 10]: less potent | Ki [6, 11]: 43.6 ± 5.2 nM

CCNC(=O)[C@H]1O[C@@H](n2cnc3c(N)nc(NCCc4ccc(CCC(=O)NCCNC(=S)NC5CC(C)(C)N([O])C(C)(C)C5)cc4)nc32)[C@H](O)[C@@H]1O [Compound 15]
Ki ([3]; read-out: Ki, inhibition of binding at A1-receptors using [3H]N6-cyclohexyladenosine, [3H]N6-cyclohexyladenosine (footnote c)): 177 ± 38 nM | Ki ([4]; read-out: Ki, inhibition of binding of [3H]CGS21680 at A2-receptors, rat striatum, 11, 12 and 14: apparent Ki): 27 ± 3 nM | Ki ([6]; read-out: Ki, inhibition of binding of 125I-PAPA-APEC at A2-receptors; bovine striatum; 11, 12 and 14: apparent Ki): 14.8 ± 3.6 nM

OC[C@H]1O[C@@H](n2cnc3c(NC4CCCCC4)ncnc32)[C@H](O)[C@@H]1O [CHA, N^6 -cyclohexyladenosine]
ED50 ([2]; mice, i.p., from dose response curves): 0.06 mg/kg | reversal of agonist-elicited locomotor depression by A1-selective antagonists ([2]; mice, agonist with A1-selective antagonists): reversed by A1 -selective antagonists

CCNC(=O)[C@H]1O[C@@H](n2cnc3c(N)nc(NCCc4ccc(CCC(=O)NCCNC(=O)CCCC[C@@H]5SC[C@@H]6NC(=O)N[C@@H]65)cc4)nc32)[C@H](O)[C@@H]1O [Compound 10]
Ki [3, 12]: > 5000 nM | Ki [4, 9]: 55 ± 30 nM | Ki (A1)/K1 (A2) [5]: > 350 | Ki [6, 11]: 14.3 ± 3.3 nM
